Starred links: 1 amine or outer side, 2 acyl side, 3 side chain; linkers in the order of their positions; H or OH if unused. Residues, ends and D or L forms follow the SMILES beside them. Groups on a side chain read outwards from the residue. *: point of attachment. Glutaryl = O=C(CCCC(=O)[*:2])[*:1]; X1 = CCCC/C=C\CCCCCCCC=NN*; NHNH2 = NN*
What was measured:
HeLa-EGFP cells = assay: Cas9 ribonucleoprotein delivery, flow cytometry of EGFP negative cells; format: cell-based
Experimental: FIG. 2 Percentage of editing (in bars, left axis) in HeLa-EGFP cells incubated with Cas9 ribonucleoprotein with an EGFP-targeting gRNA using the amphiphiles comprising 7.3(Leu-His) peptide with myristoleyl, palmitoleyl or petroselinyl aldehydes. After 3 days, EGFP negative cells (bars; left axis) and cell concentration (dots; right axis) were quantified by flow cytometry. ([Cas9]=50 nM, amphiphiles concentration in μM).
The inventors evaluated the intracellular delivery of Cas9 ribonucleoprotein with a gRNA targeting EGFP into HeLa-EGFP cells, using an amphiphilic molecule comprising peptide 7.3(Leu-His) combined with myristoleyl, palmitoleyl or petroselinyl aldehydes. After 3 days, EGFP negative cells were quantified by flow cytometry.

[1] = MTS cell viability of transfected cells, A549; format: cell-based; conditions: human; A549 cells transfected with Cas9-RNP complexes; myristoleyl, palmitoleyl or petroselinyl aldehydes
Experimental: For Cas9-RNP delivery, the efficiency on GFP silencing was around 60-70% when complexing the protein with an amphiphile comprising 7.3(Leu-His) and myristoleyl, palmitoleyl or petroselinyl aldehydes. Cells transfected with the above-indicated complexes present a cell viability higher than 80%. Viability assays were performed employing the CellTiter 96© Aqueous Non-Radioactive Cell Proliferation Assay (MTS) and following the manufacturer's instructions. Briefly, 20 μL of the combined MTS/PMS solution were added into each well of the 96-well assay plate containing cells in culture medium (100 μL). The plate was incubated 4 hours at 37° C. and 5% CO2 in a humidified atmosphere. Then, absorbance (490 nm) was recorded in an INFINITE M1000 PRO (TECAN).

mice [2] = assay: In vivo FLuc mRNA delivery, i.m. injection, bioluminescence imaging
Experimental: In vivo bioluminescence imaging (BLI) enables localization and quantification of expression following mRNA delivery in living animals.
The inventors evaluated the mRNA delivery efficiency of amphiphile by i.m. injections of an amphiphile-complexed FLuc mRNA in anesthetized mice using BLI. Amphiphilic molecule stock solutions were prepared in DMSO as described above and diluted in a suitable buffer, such as PBS, or phosphate buffer enriched with inorganic salts. The solutions of mRNA/amphiphile complexes were freshly prepared prior to in vivo experiments. Amphiphile solutions in a suitable buffer, such as PBS, or phosphate buffer enriched with inorganic salts, were mixed with mRNA solutions in a suitable buffer, such as PBS, or phosphate buffer enriched with inorganic salts (1:1 volume ratio, final amount of mRNA per mice=5 μg/mouse). The mixture was shaken for 30 min at room temperature before injection. For each mouse, 5 μg mRNA was complexed with the best candidates obtained from the in vitro experiments, 7.3(Leu-His) with myristoleyl aldehyde (7.3(Leu-His) M) (FIG. 7) or with palmitoleyl aldehyde (7.3(Leu-His) PA) (FIG. 8), and administered by i.m. injection in the right flank in 50 μL of a suitable buffer, such as PBS, or phosphate buffer enriched with inorganic salts. As control, 5 μg of naked mRNA was injected in three mice. Luciferase expression was evaluated over 48 h, starting at 1 h after the administration of mRNA complexes. […] In contrast, i.m. injections of naked mRNA afforded only low levels of luciferase expression, as measured by photon flux, in all mice. The experiment was performed in, at least, triplicates (3 mice per condition).
After obtaining the conditions providing the highest expression, a second round of i.m. delivery of FLuc mRNA was performed to further optimize the formulation of the complexes. […]

mice [3] = assay: In vivo FLuc mRNA delivery, i.v. injection, predilution formulation, BLI; conditions: i.v. tail vein, organs after 24 h
Experimental: FIG. 10A In vivo mRNA transfection. Representative bioluminescence images of animals and extracted organs following i.v. (intravenous) injection of FLuc mRNA/amphiphile complexes (0, 2.5 and 5 μM of 7.3(Leu-His) M) at different times (1 h, 4 h, 7 h and 24 h). 1.3 μg FLuc mRNA were used in all conditions. FIG. 10B Quantification of the organs' bioluminescence
In the case of i.v. administration (tail vein), luciferase expression was evaluated over 24 h, starting at 1 h after the administration of mRNA complexes. After that time, the specimens were sacrificed, and each organ was analysed individually using BLI for quantification of the expression. In this case, preferred conditions involved the injection of 50 μL of complex solution in a suitable buffer, such as PBS, or phosphate buffer enriched with inorganic salts, comprising 2.5 μM 7.3(Leu-His) M and 1.3 μg/mouse FLuc mRNA.

Ai14 mice = assay: In vivo gene editing by Cre mRNA delivery, tdTomato fluorescence; conditions: i.v.; 7 μg Cre mRNA; 1:1 and 5:1 mass ratio amphiphile:mRNA; 2 days
Experimental: In vivo gene editing enables localization and quantification of expression following Cre recombinase mRNA delivery in Ai14 mice, a reporter strain that expresses tdTomato fluorescence after Cre-mediated recombination.
The inventors evaluated the mRNA delivery efficiency of amphiphile by i.v. injections of an amphiphile-complexed Cre recombinase mRNA (CleanCap® Cre mRNA (5moU), TriLink, L-7211) in Ai14 mice. Amphiphilic molecule stock solutions were prepared in DMSO as described above. The solutions of mRNA/amphiphile complexes were freshly prepared prior to in vivo experiments. Amphiphile solutions in DMSO were mixed with mRNA solutions in a suitable buffer, such as PBS, or phosphate buffer enriched with inorganic salts (1:1 and 5:1 mass ratio, final amount of mRNA per mice=7 μg/mouse). The mixture was shaken for 30 min at room temperature before injection. For each mouse, 7 μg mRNA was complexed with 7.3(Leu-His) with myristoleyl aldehyde (7.3(Leu-His) M), and administered by i.v. injection in the tail vein in 100 μL of a suitable buffer, such as PBS, or phosphate buffer enriched with inorganic salts. As control, 7 μg of naked mRNA was injected in three mice. After 2 days, mice were sacrificed and were imaged to confirm tdTomato expression.

SMILES	% of editing (EGFP negative cells) (HeLa-EGFP cells; Cas9 50 nM, flow cytometry after 3 days, amphiphile tails myristoleyl or palmitoleyl) [%]	concentration of cells relative to Lipofectamine (HeLa-EGFP cells; after 3 days, myristoleyl or palmitoleyl aldehydes, on average)	viability [1] [%]	IC50 (HepG2) [µM]	conditions giving highest bioluminescence (FLuc expression) (mice [2]; 2.5 μM amphiphile, 1.25, 3 or 5 μg/mouse FLuc mRNA)	luciferase activity at the site of injection (mice [2]; 5 μg FLuc mRNA)	time of peak luciferase expression (mice [2]; 5 μg FLuc mRNA, all concentrations tested (2.5, 5, 10 μM)) [h]	biodistribution of bioluminescence (mice [3])	tdTomato expression in organs (Ai14 mice)
CC(=O)N[C@@H](CCCNC(=N)N)C(=O)N[C@@H](CCCCNC(=O)CCCC(=O)NN)C(=O)N[C@@H](Cc1c[nH]cn1)C(=O)N[C@@H](CCCNC(=N)N)C(=O)N[C@@H](CCCCNC(=O)CCCC(=O)NN)C(=O)N[C@@H](CCCCNC(=O)CCCC(=O)NN)C(=O)N[C@@H](Cc1c[nH]cn1)C(N)=O [7.3(L-H), Ac-RK*HRK*K*H-NH2] (Ac-RK([Glutaryl-NHNH2])HRK([Glutaryl-NHNH2])K([Glutaryl-NHNH2])H-NH2)	70	three times higher	> 80						
CCCC/C=C\CCCCCCCC=NNC(=O)CCCC(=O)NCCCC[C@H](NC(=O)[C@H](CCCCNC(=O)CCCC(=O)NN=CCCCCCCC/C=C\CCCC)NC(=O)[C@H](CCCNC(=N)N)NC(=O)[C@H](Cc1c[nH]cn1)NC(=O)[C@H](CCCCNC(=O)CCCC(=O)NN=CCCCCCCC/C=C\CCCC)NC(=O)[C@H](CCCNC(=N)N)NC(C)=O)C(=O)N[C@@H](Cc1c[nH]cn1)C(N)=O [7.3(Leu-His) M] (Ac-RK([Glutaryl-X1])HRK([Glutaryl-X1])K([Glutaryl-X1])H-NH2)				~60	achieved with the complexes formed by 2.5 μM amphiphile and 5 μg/mouse of FLuc mRNA	High levels of luciferase activity	7	a preferred spleen biodistribution of the bioluminiscence was observed, followed by liver expression and, to a lesser extent, in the lungs	expression of tdTomato protein was observed preferably in spleen and lungs, being more intense when using 5:1 mass ratio amphiphile:mRNA

Source: patent publication US20250304623A1, “PEPTIDES FOR INTRACELLULAR DELIVERY” (UNIVERSIDADE DE SANTIAGO DE COMPOSTELA, priority 2022, published 2025)
